In patent EP4640234A1, “PHARMACEUTICAL COMPOSITION FOR PREVENTING OR TREATING GRAFT-VERSUS-HOST DISEASE CONTAINING GLP-2 DERIVATIVE OR LONG-ACTING CONJUGATE THEREOF” (Hanmi Pharm. Co., Ltd., priority 2022, dated 2024):

Test system: SR-GVHD model induced by allogeneic transplantation
Test: SR-GVHD mouse allogeneic transplantation model, switching from steroid to conjugate (Example 4)
Format: in vivo, BALB/C mice (recipients)
Settings: Group 2: Apraglutide 469 µg/kg once every other day, subcutaneously, from 3 days after splenocyte injection; excipient group 21.4%; FIG. 4
Experimental: In order to construct a mouse allogeneic transplantation model as a graft-versus-host disease (GVHD) model, female donor mice C57BL/6j were purchased from OrientBio (Korea), and female recipient mice BALB/C were purchased from DBL (Korea). The mice were raised in a sterile environment with a 12-h light/dark cycle. Food and water were provided ad libitum, and all procedures were performed under the approval of the Animal Experimentation Committee.
In order to mobilize hematopoietic stem cells (HSCs) into peripheral blood from 13-week-old C57BL/6j mice (donors), 10 µg of G-CSF (granulocyte-colony stimulating factor) (PeproTech, USA) was injected subcutaneously for 5 days, and then 1.5 × 10^7 splenocytes were collected. The 1.5 × 10^7 splenocytes (200 µL volume) were injected into BALB/C mice (recipients) through the tail vein. […]
The numerical value expressed as the dose of the GLP-2 derivative long-acting conjugate herein is based on the value acquired by excluding the mass of the polyethylene glycol linker moiety from the total mass of the GLP-2 derivative long-acting conjugate used, that is, the sum of the masses of only the polypeptide moieties.
The onset signs were evaluated using the same criteria as in Table 3, the survival rate was determined, and the small intestine and colon tissues were harvested and pathological changes were observed.

Apraglutide
survival rate on day 25: 35.7%
